Active and inactive are the calls of the source. The calls are words filed in the database; no cut-off is given here.
Tests used:
[1] = molecular target: T1, Tyrosine-protein kinase ITK/TSK (Homo sapiens, UniProt Q08881); assay: Inhibition of recombinant human N-terminal His6-tagged ITK (352 to 617 residues) expressed in baculovirus infected Sf21 insect cells using STK substrate by HTRF assay
T1 sequence (Q08881 whole entry): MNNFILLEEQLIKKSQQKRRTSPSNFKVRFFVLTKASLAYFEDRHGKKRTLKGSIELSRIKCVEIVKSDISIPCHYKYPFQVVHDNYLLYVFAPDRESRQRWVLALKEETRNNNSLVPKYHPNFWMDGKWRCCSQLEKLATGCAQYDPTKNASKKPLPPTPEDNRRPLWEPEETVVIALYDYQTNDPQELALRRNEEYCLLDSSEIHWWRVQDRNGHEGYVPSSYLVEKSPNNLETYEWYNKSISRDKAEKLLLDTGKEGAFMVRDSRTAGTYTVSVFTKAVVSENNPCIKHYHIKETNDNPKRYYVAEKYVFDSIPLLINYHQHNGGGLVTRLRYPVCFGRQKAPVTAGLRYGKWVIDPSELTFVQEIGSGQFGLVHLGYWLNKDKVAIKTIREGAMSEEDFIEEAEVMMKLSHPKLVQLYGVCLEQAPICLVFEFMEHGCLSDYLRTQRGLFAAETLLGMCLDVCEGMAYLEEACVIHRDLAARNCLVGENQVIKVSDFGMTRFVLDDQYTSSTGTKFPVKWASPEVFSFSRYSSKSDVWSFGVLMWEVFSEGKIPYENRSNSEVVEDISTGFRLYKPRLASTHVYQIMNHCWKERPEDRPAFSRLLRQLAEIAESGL

[2] = molecular target: Tyrosine-protein kinase BTK (Homo sapiens, UniProt Q06187); assay: Inhibition of recombinant human full-length N-terminal His6-tagged BTK expressed in baculovirus infected Sf21 insect cells using STK substrate by HTRF assay
Sequence of Tyrosine-protein kinase BTK (Q06187 whole entry): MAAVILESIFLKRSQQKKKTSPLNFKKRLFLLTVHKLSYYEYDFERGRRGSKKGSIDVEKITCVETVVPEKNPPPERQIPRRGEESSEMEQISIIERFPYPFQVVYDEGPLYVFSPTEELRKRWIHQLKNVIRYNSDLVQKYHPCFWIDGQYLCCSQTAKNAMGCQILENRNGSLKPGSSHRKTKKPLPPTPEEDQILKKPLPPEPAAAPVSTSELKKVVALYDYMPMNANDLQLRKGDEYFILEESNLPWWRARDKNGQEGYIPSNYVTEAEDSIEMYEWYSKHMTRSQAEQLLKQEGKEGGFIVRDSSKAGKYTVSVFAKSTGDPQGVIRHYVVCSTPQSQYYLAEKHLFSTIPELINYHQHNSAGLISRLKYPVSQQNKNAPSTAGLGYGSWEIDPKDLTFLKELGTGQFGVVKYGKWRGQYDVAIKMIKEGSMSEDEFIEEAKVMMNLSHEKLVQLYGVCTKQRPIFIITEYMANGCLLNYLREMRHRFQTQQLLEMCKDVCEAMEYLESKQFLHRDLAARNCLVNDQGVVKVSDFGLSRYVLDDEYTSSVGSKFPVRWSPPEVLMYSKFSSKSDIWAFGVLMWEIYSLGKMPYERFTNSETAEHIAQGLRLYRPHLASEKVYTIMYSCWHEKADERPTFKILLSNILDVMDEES

[3] = molecular target: T2, Tyrosine-protein kinase ITK/TSK (Homo sapiens) (UniProt Q08881); assay: Inhibition of human ITK at 1 uM using MAP as substrate in presence of [gamma33P]-ATP relative to control
T2 sequence (whole entry): T1 sequence (Q08881 whole entry)

[4] = molecular target: T3, Tyrosine-protein kinase JAK3 (Homo sapiens, UniProt P52333); assay: Inhibition of recombinant human N-terminal His6-tagged JAK3 (781 to end residues) expressed in baculovirus infected Sf21 cells using STK as substrate by HTRF assay
T3 sequence (P52333 whole entry): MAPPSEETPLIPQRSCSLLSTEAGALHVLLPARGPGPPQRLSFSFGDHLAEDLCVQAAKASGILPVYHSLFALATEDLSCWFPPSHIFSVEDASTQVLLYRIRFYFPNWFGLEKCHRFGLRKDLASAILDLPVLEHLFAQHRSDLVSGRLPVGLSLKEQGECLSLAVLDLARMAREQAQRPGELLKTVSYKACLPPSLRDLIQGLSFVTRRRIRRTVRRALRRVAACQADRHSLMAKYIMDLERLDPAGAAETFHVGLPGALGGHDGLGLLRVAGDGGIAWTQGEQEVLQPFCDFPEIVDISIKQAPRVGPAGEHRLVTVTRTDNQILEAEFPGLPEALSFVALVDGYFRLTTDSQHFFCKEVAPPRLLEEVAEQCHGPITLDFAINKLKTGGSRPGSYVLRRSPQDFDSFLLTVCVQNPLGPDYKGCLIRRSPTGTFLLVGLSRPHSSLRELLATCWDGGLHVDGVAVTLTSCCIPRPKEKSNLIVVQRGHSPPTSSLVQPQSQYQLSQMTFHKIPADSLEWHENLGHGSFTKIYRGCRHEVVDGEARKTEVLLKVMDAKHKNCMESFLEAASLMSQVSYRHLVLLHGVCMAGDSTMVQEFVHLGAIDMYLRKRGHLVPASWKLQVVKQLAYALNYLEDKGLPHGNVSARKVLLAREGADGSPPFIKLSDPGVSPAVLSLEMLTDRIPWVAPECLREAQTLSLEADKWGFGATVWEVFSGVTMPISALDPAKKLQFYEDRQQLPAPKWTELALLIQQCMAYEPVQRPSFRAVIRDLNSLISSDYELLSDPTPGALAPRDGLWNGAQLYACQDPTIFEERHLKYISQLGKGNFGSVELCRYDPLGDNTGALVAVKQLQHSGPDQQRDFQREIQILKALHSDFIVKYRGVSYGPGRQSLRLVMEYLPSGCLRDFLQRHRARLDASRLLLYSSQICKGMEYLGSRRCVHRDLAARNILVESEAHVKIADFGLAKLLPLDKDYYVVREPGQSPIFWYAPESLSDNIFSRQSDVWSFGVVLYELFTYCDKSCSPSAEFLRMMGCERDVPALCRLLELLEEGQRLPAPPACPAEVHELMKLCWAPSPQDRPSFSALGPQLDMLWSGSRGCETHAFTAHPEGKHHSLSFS

[5] = molecular target: Epidermal growth factor receptor (Homo sapiens, UniProt P00533); assay: Inhibition of recombinant human N-terminal GST-tagged EGFR kinase domain (696 to end residues) expressed in baculovirus infected Sf21 insect cells using STK as substrate by HTRF assay
Sequence of Epidermal growth factor receptor (P00533 whole entry, the tested form may be a part): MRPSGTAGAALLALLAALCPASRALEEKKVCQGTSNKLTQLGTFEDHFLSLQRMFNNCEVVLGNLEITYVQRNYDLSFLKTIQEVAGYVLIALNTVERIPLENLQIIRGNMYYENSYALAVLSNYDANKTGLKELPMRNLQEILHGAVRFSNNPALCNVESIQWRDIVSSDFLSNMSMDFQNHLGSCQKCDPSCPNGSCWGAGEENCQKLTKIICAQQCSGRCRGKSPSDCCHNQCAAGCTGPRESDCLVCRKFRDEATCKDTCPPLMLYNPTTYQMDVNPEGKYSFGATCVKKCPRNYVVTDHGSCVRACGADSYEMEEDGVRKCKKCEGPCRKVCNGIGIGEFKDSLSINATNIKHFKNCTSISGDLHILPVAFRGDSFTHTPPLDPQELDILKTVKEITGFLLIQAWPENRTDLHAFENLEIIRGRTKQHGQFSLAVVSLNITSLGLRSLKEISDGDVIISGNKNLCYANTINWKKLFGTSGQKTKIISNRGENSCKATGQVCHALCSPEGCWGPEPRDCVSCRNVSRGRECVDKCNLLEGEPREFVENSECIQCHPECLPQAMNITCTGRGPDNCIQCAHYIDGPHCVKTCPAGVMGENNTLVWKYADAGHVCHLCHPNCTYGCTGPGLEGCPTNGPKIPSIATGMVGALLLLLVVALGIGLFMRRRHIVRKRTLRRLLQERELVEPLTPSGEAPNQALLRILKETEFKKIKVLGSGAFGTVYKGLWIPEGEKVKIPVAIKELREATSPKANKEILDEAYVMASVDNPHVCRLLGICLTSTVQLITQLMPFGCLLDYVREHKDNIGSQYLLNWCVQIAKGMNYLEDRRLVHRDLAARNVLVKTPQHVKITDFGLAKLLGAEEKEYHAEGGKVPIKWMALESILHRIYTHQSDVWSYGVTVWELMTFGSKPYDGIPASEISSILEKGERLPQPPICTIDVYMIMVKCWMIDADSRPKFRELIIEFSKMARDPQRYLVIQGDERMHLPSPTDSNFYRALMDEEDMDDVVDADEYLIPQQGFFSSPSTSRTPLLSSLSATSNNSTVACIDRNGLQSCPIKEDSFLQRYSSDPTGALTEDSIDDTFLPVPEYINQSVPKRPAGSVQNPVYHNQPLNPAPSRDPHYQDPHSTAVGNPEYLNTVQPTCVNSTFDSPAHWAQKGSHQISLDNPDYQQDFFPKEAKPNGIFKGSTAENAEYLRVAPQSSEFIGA

[6] = molecular target: Tyrosine-protein kinase Blk (Homo sapiens, UniProt P51451); assay: Inhibition of BLK (unknown origin) using […] as substrate by HTRF assay
Sequence of Tyrosine-protein kinase Blk (P51451 whole entry, the tested form may be a part): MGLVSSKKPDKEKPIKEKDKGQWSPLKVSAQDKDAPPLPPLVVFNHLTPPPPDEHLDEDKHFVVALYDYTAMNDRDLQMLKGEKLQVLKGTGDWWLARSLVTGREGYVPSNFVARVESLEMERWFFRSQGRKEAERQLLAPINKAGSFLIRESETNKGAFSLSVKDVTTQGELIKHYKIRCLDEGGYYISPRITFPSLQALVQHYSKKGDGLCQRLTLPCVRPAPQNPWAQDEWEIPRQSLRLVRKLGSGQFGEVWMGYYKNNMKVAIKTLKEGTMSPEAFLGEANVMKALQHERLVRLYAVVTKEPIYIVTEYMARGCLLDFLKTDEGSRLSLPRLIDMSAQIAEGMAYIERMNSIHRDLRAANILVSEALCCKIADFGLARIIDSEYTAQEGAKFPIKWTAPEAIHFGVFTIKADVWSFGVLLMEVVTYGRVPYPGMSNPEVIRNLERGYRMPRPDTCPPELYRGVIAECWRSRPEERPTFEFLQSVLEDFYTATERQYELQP

[7] = molecular target: T1, Tyrosine-protein kinase ITK/TSK; assay: Inhibition of kinase tracer 236 binding to recombinant full length GST-tagged human ITK cytoplasmic domain expressed in baculovirus expression system incubated for 60 mins by Lanthascreen assay
[8] = molecular target: T2, Tyrosine-protein kinase ITK/TSK (Homo sapiens); assay: Inhibition of recombinant human N-terminal His6-tagged ITK (352 to 617 residues) expressed in baculovirus infected Sf21 insect cells assessed as inactivation rate constant using STK substrate by HTRF assay
[9] = molecular target: T2, Tyrosine-protein kinase ITK/TSK (Homo sapiens); assay: Covalent binding affinity to recombinant human ITK assessed as binding to Cys442 residue at 50 uM incubated for 24 hrs prior to trypsin addition for 4 hrs and boiled for 3 min followed by chymotrypsin addition and measured after overnight incubation by LC/MS/MS analysis
[10] = molecular target: T2, Tyrosine-protein kinase ITK/TSK (Homo sapiens); assay: Inhibition of recombinant human N-terminal His6-tagged ITK (352 to 617 residues) expressed in baculovirus infected Sf21 insect cells assessed as ratio of Kinact to Ki using STK substrate by HTRF assay
[11] = molecular target: T2, Tyrosine-protein kinase ITK/TSK (Homo sapiens); assay: Inhibition of ITK in human Jurkat cells assessed as reduction in anti-CD3/CD28-stimulated PLCgamma1 phosphorylation at 0.1 to 10000 nM preincubated for 2 hrs followed by anti-CD3/CD28 beads addition and measured after 30 min by Western blot analysis; assay type: cell-based
[12] = tested on: H9; assay: Growth inhibition of human H9 cells incubated for 72 hrs by CellTiter-Glo luminescent cell viability assay; assay type: functional; conditions: H9, 72 h
[13] = tested on: MOLT-4; assay: Growth inhibition of human MOLT4 cells incubated for 72 hrs by CellTiter-Glo luminescent cell viability assay; assay type: functional; conditions: MOLT-4, 72 h
[14] = tested on: CCRF-CEM; assay: Growth inhibition of human CCRF-CEM cells incubated for 72 hrs by CellTiter-Glo luminescent cell viability assay; assay type: functional
[15] = tested on: Jurkat; assay: Growth inhibition of human Jurkat cells incubated for 72 hrs by CellTiter-Glo luminescent cell viability assay; assay type: functional
[16] = tested on: HEK-293T; assay: Growth inhibition of HEK293T cells incubated for 72 hrs by CellTiter-Glo luminescent cell viability assay; assay type: functional; conditions: Homo sapiens

Row | Compound | IC50 [1] | IC50 [2] | IC50 [4] | IC50 [5] | further results
1 | C=CC(=O)Nc1cccc(Oc2nc(Nc3ccc(N4CCN(C(C)=O)CC4)cc3)nc3[nH]cc(-c4cncc(NC)n4)c23)c1 | 5.4 nM | 8 nM | – | – | –
2 | C=CC(=O)Nc1cccc(Oc2nc(Nc3ccc(N4CCN(C)CC4)c(F)c3)nc3[nH]ccc23)c1 | – | – | – | – | inhibition [3]: 80%
3 | C=CC(=O)N1CCC(Oc2nc(Nc3ccc(N4CCN(C(C)=O)CC4)cc3)nc3[nH]cc(-c4cncc(NC)n4)c23)CC1 | 2.3 nM | 1480 nM | 51 nM | 903 nM | –
4 | C=CC(=O)Nc1cccc(Oc2nc(Nc3ccc(N4CCOCC4)cc3)nc3[nH]cc(-c4ccncc4)c23)c1 | 0.5 nM | 3.9 nM | 0.6 nM | 2.3 nM | IC50 [6]: 0.7 nM
5 | CNc1cncc(-c2c[nH]c3nc(Nc4ccc(N5CCN(C(C)=O)CC5)cc4)nc(Oc4ccccc4)c23)n1 | 5.4 to 19 nM | 1460 nM | 470 nM | 1050 nM | –
6 | COc1ccc(-c2c[nH]c3nc(Nc4ccc(N5CCOCC5)cc4)nc(Oc4ccccc4)c23)cc1 | – | – | – | – | IC50 [7]: > 10000 nM
7 | CNc1cncc(-c2c[nH]c3nc(Nc4ccc(N5CCN(C(C)=O)CC5)cc4)nc(OC4CCCCC4)c23)n1 | 5.1 nM | 1470 nM | 104 nM | 654 nM | –
8 | C=CC(=O)N1CCC[C@H](Oc2nc(Nc3ccc(N4CCN(C(C)=O)CC4)cc3)nc3[nH]cc(-c4cncc(NC)n4)c23)C1 | 375 nM | > 10000 nM | – | – | –
9 | C#CCCN1CCN(c2ccc(Nc3nc(OC4CCN(C(=O)C=C)CC4)c4c(-c5cncc(NC)n5)c[nH]c4n3)cc2)CC1 | 55 nM | > 3000 nM | 61 nM | > 3000 nM | –
10 | C=CC(=O)N1CCC[C@@H](Oc2nc(Nc3ccc(N4CCOCC4)cc3)nc3[nH]cc(-c4cncc(NC)n4)c23)C1 | < 1.26 nM | 35 nM | 11 nM | 138 nM | K [8]: 0.31 min⁻¹; Activity [9]: Active; Ratio [10]: 891 ×10³ /M.s; Ki [1]: 5.8 nM; inhibition [11]: Active
11 | Nc1ccc(-c2c[nH]c3nc(Nc4ccc(N5CCOCC5)cc4)nc(Oc4ccccc4)c23)cc1 | – | – | – | – | IC50 [7]: > 10000 nM
12 | C=CC(=O)N1CCC[C@@H]1COc1nc(Nc2ccc(N3CCN(C(C)=O)CC3)cc2)nc2[nH]cc(-c3cncc(NC)n3)c12 | 2.2 nM | 286 nM | 69 nM | 150 nM | –
13 | C=CC(=O)N1CCC[C@H]1COc1nc(Nc2ccc(N3CCN(C(C)=O)CC3)cc2)nc2[nH]cc(-c3cncc(NC)n3)c12 | 7.8 nM | 434 nM | 3.7 nM | 1970 nM | –
14 | CNc1cncc(-c2c[nH]c3nc(Nc4ccc(N5CCN(C(C)=O)CC5)cc4)nc(OC4CCOCC4)c23)n1 | 7.1 nM | 1610 nM | 186 nM | 937 nM | –
15 | C=CC(=O)N1CCC(Oc2nc(Nc3ccc(N4CCOCC4)cc3)nc3[nH]cc(-c4cccc(NC)n4)c23)CC1 | 74 nM | > 10000 nM | 1430 nM | > 3000 nM | –
16 | C=CC(=O)N1CCC(Oc2nc(Nc3ccc(N4CCOCC4)cc3)nc3[nH]cc(-c4cncc(NC)c4)c23)CC1 | 3.6 nM | 942 nM | 84 nM | > 3000 nM | GI50 [12]: 190 nM; GI50 [13]: 109 nM; GI50 [14]: 48 nM; GI50 [15]: 188 nM; GI50 [16]: 270 nM
17 | C=CC(=O)N1CCC[C@@H](Oc2nc(Nc3ccc(N4CCN(CC)CC4)cc3)nc3[nH]cc(-c4cncc(NC)n4)c23)C1 | 1.3 nM | 26 nM | 1.2 nM | 8.7 nM | –
18 | C=CC(=O)N1CCC[C@@H](Oc2nc(Nc3ccc(N4CCN(C(C)=O)CC4)cc3)nc3[nH]cc(-c4cncc(NC)n4)c23)C1 | 3.7 nM | 270 nM | 24 nM | 499 nM | K [8]: 0.31 min⁻¹; Ratio [10]: 153 ×10³ /M.s; Ki [1]: 33.7 nM; inhibition [11]: Active
19 | C=CC(=O)N1CCC(Oc2nc(Nc3ccc(N4CCOCC4)cc3)nc3[nH]cc(-c4ccnc(NC)c4)c23)CC1 | < 1.26 nM | 36 nM | 4.2 nM | 38 nM | –

From ChEMBL document CHEMBL4346710, “Discovery of 7H-pyrrolo[2,3-d]pyrimidine derivatives as selective covalent irreversible inhibitors of interleukin-2-inducible T-cell kinase (Itk)” (Eur J Med Chem, 2019)
